For 3 molecules, GI50 results are on record in patent US20230255972A1, “PYRIMIDINE COMPOUND-CONTAINING COMBINATION TO BE USED IN TUMOR TREATMENT” (TAIHO PHARMACEUTICAL CO., LTD., priority 2020, published 2023).

One assay has as its system H1975-EGFRinsSVD cells. Kind of assay: Growth inhibitory activity against exon 20 insertion mutant EGFR expressing cell line H1975-EGFRinsSVD. The following applies: Homo sapiens, 72 h; 3 days; read-out: Cell growth inhibitory activity GI 50 value, H1975-EGFRinsSVD cell. Type of assay: cell-based.
For assay [1], the system named is MCF10A_EGFR/D770_N771insSVD cells. Kind of assay: Growth inhibitory activity against MCF10A_EGFR/D770_N771insSVD. It counts as cell-based. The following applies: Homo sapiens, 72 h; 3 days; read-out: Cell growth inhibitory activity GI 50 value, MCF10A_EGFR/D770_N771insSVD cell. As to the method:
Test Example 7 Measurement of Growth Inhibitory Activity Against EGFR Overexpressing Cell Line and Exon 20 Insertion Mutant EGFR Expressing Cell Line
Growth inhibitory activity against an EGFR overexpressing cell line and an exon 20 insertion mutant EGFR expressing cell line was evaluated using MDA-MB-468 cells (ATCC) as an EGFR overexpressing human breast cancer cell line; NCI-H1975 cells (ATCC) as L858R and T790M mutant EGFR-positive human lung cancer cells; and MCF10A_EGFR cells, MCF10A_EGFR/V769_D770insASV cells, MCF10A_EGFR/D770_N771insSVD cells, and MCF10A_EGFR/H773_V774insNPH cells (Fukushima Medical University) which were cells obtained by introducing the EGFR gene (WT, […], D770_N771insSVD mutant, H773_V774insNPH mutant) into MCF10A cells as human normal mammary gland cells.
The MDA-MB-468 cells were suspended in Leibovitz's L-15 medium containing 10% inactivated fetal bovine serum. The NCI-H1975 cells were suspended in RPMI-1640 medium containing 10% inactivated fetal bovine serum. The MCF10A_EGFR cells, the MCF10A_EGFR/V769_D770insASV cells, the MCF10A_EGFR/D770_N771insSVD cells, or the MCF10A_EGFR/H773_V774insNPH cells were suspended in DMEM/Ham's F-12 medium (containing L-glutamine, phenol red, HEPES, and sodium pyruvate) containing 10 μg/mL insulin, 500 ng/mL hydrocortisone, 5 μmol/L forskolin, and 5% inactivated horse serum in terms of their final concentrations. Each cell suspension was seeded in each well of a 96-well flat-bottom plate such that the number of cells per well was 500, and was then cultured in a carbon dioxide gas-free culture vessel for the MDA-MB-468 cells and in a 5% carbon dioxide gas-containing culture vessel for the other cells at 37° C. for 1 day. The pyrimidine compound of the present invention was prepared at 1 mM in DMSO and then diluted 1/200 with a medium to prepare a 5 μM solution. […]
The cells at the start of the culture (day 0) and after the culture (day 3) were counted using CellTiter-Glo(R) 2.0 Reagent (Promega Corp.) according to the protocol recommended by the manufacturer. […]

In the case of `C=CC(=O)N1C[C@H](n2c(C#CC)c(C(=O)N[C@H](C)c3ccccc3)c3c(N)ncnc32)C[C@@H]1C` [Example 2, 7-((3R,5S)-1-acryloyl-5-methylpyrrolidin-3-yl)-4-amino-N—((R)-1-phenylethyl)-6-(prop-1-yn-1-yl)-7H-pyrrolo[2,3-d]pyrimidine-5-carboxamide], the results for the GI50 (in the assay with H1975-EGFRinsSVD cells; in assay [1]) were 9.5 nM and 8.2 nM, respectively.
On to `C=CC(=O)N1C[C@H](n2c(C#CC3CC3)c(C(=O)N[C@H](C)c3ccccc3)c3c(N)ncnc32)C[C@@H]1C` [Example 11, 7-((3R,5S)-1-acryloyl-5-methylpyrrolidin-3-yl)-4-amino-6-(cyclopropylethynyl)-N—((R)-1-phenylethyl)-7H-pyrrolo[2,3-d]pyrimidine-5-carboxamide], for which the GI50 was determined as 17 nM in the assay on H1975-EGFRinsSVD cells and 10 nM in assay [1].
`C=CC(=O)N1C[C@H](n2c(C#CC(C)(C)C)c(C(=O)N[C@H](C)c3ccccc3)c3c(N)ncnc32)C[C@@H]1C` [Example 12, 7-((3R,5S)-1-acryloyl-5-methylpyrrolidin-3-yl)-4-amino-6-(3,3-dimethylbut-1-yn-1-yl)-N—((R)-1-phenylethyl)-7H-pyrrolo[2,3-d]pyrimidine-5-carboxamide]: the GI50 in the assay with H1975-EGFRinsSVD cells stood at 52 nM; in assay [1], 27 nM.
